Earlier results on 1 compound are cited in patent US8030014B2, “Detecting agent and therapeutic agent for highly malignant breast cancer” (priority 2005, dated 2011).

This data set has as its system breast cancer. The following applies: paclitaxel used in addition to adriamycin plus cyclophosphamide (AC); postoperative auxiliary chemotherapy.

On to `CC(=O)O[C@H]1C(=O)[C@@]2(C)[C@H]([C@H](OC(=O)c3ccccc3)[C@]3(O)C[C@H](OC(=O)[C@H](O)[C@@H](NC(=O)c4ccccc4)c4ccccc4)C(C)=C1C3(C)C)[C@]1(OC(C)=O)CO[C@@H]1C[C@@H]2O` [paclitaxel], for which the “lowering of annual mortality rate over AC therapy alone” value was 26%.
